# Assays:
# [1] = biological target: T1, MelBEc (MelB homologue from E. coli) (Escherichia coli, UniProt P02921); assay: Trp to dansyl FRET in detergent extract of membrane vesicles; conditions: […] D^2G; D-NBM-C11; sugar binding site
# [2] = biological target: T2, MelBSt (melibiose permease of Salmonella typhimurium) (Salmonella enterica, UniProt P30878); assay: as above; conditions: […] D^2G; DDM or D-NBM-C11; sugar binding site
# [3] = biological target: T1, MelBEc (MelB homologue from E. coli); assay: reversal of Trp to D^2G FRET in detergent extract of membrane vesicles; assay type: binding; conditions: saturating melibiose; […] D^2G; D-NBM-C11; competitive
# [4] = biological target: T2, MelBSt (melibiose permease of Salmonella typhimurium); assay: as above; assay type: binding; conditions: saturating melibiose; […] D^2G; DDM or D-NBM-C11; competitive
# [5] = biological target: LeuT (leucine transporter) (Aquifex aeolicus, UniProt O67854); assay: scintillation proximity assay; assay type: binding; conditions: labelled compound; DDM or NBMs at CMC + […] or […] wt %; room temperature
# T2 sequence (P30878 whole entry): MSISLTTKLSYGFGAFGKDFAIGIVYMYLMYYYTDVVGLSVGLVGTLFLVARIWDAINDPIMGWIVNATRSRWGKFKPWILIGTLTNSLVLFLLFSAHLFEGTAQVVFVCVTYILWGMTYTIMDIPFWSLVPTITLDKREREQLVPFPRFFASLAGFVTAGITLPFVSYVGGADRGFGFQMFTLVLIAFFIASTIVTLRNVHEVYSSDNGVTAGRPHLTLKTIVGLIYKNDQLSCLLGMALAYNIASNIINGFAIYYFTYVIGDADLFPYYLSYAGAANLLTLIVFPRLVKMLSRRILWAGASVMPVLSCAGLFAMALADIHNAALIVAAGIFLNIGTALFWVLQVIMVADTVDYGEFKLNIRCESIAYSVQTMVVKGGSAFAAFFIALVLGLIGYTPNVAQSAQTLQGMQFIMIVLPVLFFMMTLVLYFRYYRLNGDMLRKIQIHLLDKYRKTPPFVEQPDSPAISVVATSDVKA
# T1 sequence (P02921 2-473): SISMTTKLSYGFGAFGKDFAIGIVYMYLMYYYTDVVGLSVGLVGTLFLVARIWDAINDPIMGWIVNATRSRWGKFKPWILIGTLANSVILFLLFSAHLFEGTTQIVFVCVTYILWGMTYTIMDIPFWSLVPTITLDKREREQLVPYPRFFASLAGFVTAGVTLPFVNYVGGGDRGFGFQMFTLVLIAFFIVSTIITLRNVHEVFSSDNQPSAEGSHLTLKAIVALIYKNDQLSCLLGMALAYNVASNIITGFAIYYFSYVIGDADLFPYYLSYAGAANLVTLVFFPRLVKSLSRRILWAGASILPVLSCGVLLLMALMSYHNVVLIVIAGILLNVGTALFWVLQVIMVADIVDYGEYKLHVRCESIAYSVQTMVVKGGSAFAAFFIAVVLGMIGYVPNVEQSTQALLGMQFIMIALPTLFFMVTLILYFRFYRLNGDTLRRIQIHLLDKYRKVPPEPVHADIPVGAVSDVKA
compound,measurement,setting,value
CN(C)c1cccc2c(S(=O)(=O)NCCS[C@@H]3O[C@H](CO)[C@H](O)[C@H](O)[C@H]3O)cccc12 [2′-(N-dansyl) aminoalkyl-1-thio-β-D-galactopyranoside],Trp to dansyl FRET in detergent extract of membrane vesicles,[1],both MelB proteins gave remarkable levels of galactoside binding in D-NBM-C11
same,Trp to dansyl FRET in detergent extract of membrane vesicles,[2],FRET from tryptophan residues (Trp) to a fluorescent ligand
OC[C@H]1O[C@H](OC[C@H]2OC(O)[C@H](O)[C@@H](O)[C@@H]2O)[C@H](O)[C@@H](O)[C@H]1O (some centres unmarked) [melibiose],reversal of Trp to D^2G FRET in detergent extract of membrane vesicles,[3],both MelB proteins gave remarkable levels of galactoside binding in D-NBM-C11
same,reversal of Trp to D^2G FRET in detergent extract of membrane vesicles,[4],MelBSt solubilized in DDM showed an effective melibiose reversal of FRET
CC(C)C[C@H](N)C(=O)O [[^3H]-Leu],scintillation proximity assay,[5],ability of the transporter to bind radiolabeled leucine [^3H-Leu]

# From publication PMC5818264 (Journal of the American Chemical Society, 2017)
